Values of other authors in article PMC8226449, “In Vitro Evaluation of the Squaramide-Conjugated Fibroblast Activation Protein Inhibitor-Based Agents AAZTA^5.SA.FAPi and DOTA.SA.FAPi” (Molecules, 2021).

Parameters: method as in PMID 32332144
Conditions: reported in the literature; cited from earlier work

Compound: N#C[C@@H]1CC(F)(F)CN1C(=O)CNC(=O)c1ccnc2ccc(OCCCN3CCN(C(=O)CN4CCN(CC(=O)O)CCN(CC(=O)O)CCN(CC(=O)O)CC4)CC3)cc12 (68Ga complex, metal not drawn) [FAPI-04]
- logD: −2.4 ± 0.28
